Results reported in the supplement of paper PMC11821682.

What was measured:
Danio rerio embryo = test: BMC10 any morphological effect or mortality at 120 hpf; higher = less toxic
Procedure: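 ZBEscreen: dechorionated Tropical 5D zebrafish embryos were exposed from 4 hpf in 96-well plates (1% DMSO, 28 °C). All compounds were first tested at 100 µM; hits were retested at 0.005-100 µM. Morphology and mortality were scored at 120 hpf and fitted as BMC10 (3-parameter log-logistic, extra risk). The embryonic photomotor response at 24 hpf and the larval photomotor response at 120 hpf are given as lowest effect levels (K-S test, p<0.01). NA = not significant up to 100 µM; NT = not tested.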

HL-60 = test: Cell Health Index (toxicity pseudo-probability over dose series) (index 0-1); higher = more cytotoxic / cell stress;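 note: HL-60 cells exposed 4 h at 37 °C to ten threefold dilutions spanning 5 nM to 100 µM, multiparametric flow cytometry features scored by machine-learning classification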

SMILES	BMC10 any morphological effect or mortality (Danio rerio embryo) [µM]	Cell Health Index (HL-60)
COC(=O)N[C@H](C(=O)N1CC2(CC2)C[C@H]1c1ncc(-c2ccc3c(c2)C(F)(F)c2cc(-c4ccc5nc([C@@H]6[C@H]7CC[C@H](C7)N6C(=O)[C@@H](NC(=O)OC)C(C)C)[nH]c5c4)ccc2-3)[nH]1)C(C)C [Ledipasvir]	> 100	0.231
CC(C)Cn1cnc2c(N)nc3ccccc3c21 [Imiquimod]	> 100	0.269
O=C1/C(=C/c2ccc(O)c(O)c2)COc2cc(O)ccc21 [Sappanone A]	> 100	0.614
Cc1ccc(S(=O)(=O)OCC(=O)Nc2ccc(C(=O)O)c(O)c2)cc1 [S3I-201]	> 100	0.259
CC(C)(O)[C@@H]1CC[C@](C)([C@H]2[C@@H](O)C[C@@]3(C)[C@@H]4C[C@H](O[C@@H]5O[C@H](CO)[C@@H](O)[C@H](O)[C@H]5O)[C@H]5C(C)(C)[C@@H](O[C@@H]6OC[C@@H](O)[C@H](O)[C@H]6O)CC[C@@]56C[C@@]46CC[C@]23C)O1 [Astragaloside IV]	> 100	0.16
O=C(CCc1ccc(O)cc1)c1c(O)cc(O[C@@H]2O[C@H](CO)[C@@H](O)[C@H](O)[C@H]2O)cc1O [Trilobatin]	> 100	0.183
OC[C@H]1O[C@@H](Oc2cc(O)cc(C=Cc3ccc(O)cc3)c2)[C@H](O)[C@@H](O)[C@@H]1O [Polydatin]	> 100	0.106
CC(C)CN(C[C@@H](OP(=O)([O-])[O-])[C@H](Cc1ccccc1)NC(=O)O[C@H]1CCOC1)S(=O)(=O)c1ccc(N)cc1.[Ca+2] [Fosamprenavir]	> 100	0.242
CCCOCCCCCCCCCC(=O)O [10-propoxy-Decanoic acid]	> 100	0.168
c1ccc(CNCc2ccc(CN3CCCNCCNCCCNCC3)cc2)nc1 [AMD 3465 parent]	> 100	0.232
O=c1cc(-c2ccccc2)oc2c(O)c(O)ccc12 [7,8-Dihydroxyflavone]	> 100	0.507
CCCCCCCCCN1C[C@H](O)[C@@H](O)[C@H](O)[C@H]1CO [N-Nonyldeoxynojirimycin]	> 100	0.254
O=C(c1ccccc1)c1ccc2nc(NC(=O)c3csc(C4CCN(c5ncnc6ccsc56)CC4)n3)[nH]c2c1	> 100	0.507
COc1ccc(C[C@H]2COC(=O)[C@@H]2Cc2ccc(O[C@@H]3O[C@H](CO)[C@@H](O)[C@H](O)[C@H]3O)c(OC)c2)cc1OC [Arctiin]	> 100	0.192
Cc1nnc(C(=O)NC(C)(C)c2nc(C(=O)NCc3ccc(F)cc3)c([O-])c(=O)n2C)o1.[K+] [Raltegravir]	> 100	0.218
CC(C)(C)NC(=O)[C@@H]1CN(Cc2cccnc2)CCN1C[C@@H](O)C[C@@H](Cc1ccccc1)C(=O)N[C@H]1c2ccccc2C[C@H]1O.O=S(=O)(O)O [Indinavir]	> 100	0.233
CC(=O)Nc1ccc(C(=O)O)cc1.CC(=O)Nc1ccc(C(=O)O)cc1.CC(=O)Nc1ccc(C(=O)O)cc1.CC(O)CN(C)C.CC(O)CN(C)C.CC(O)CN(C)C.O=c1nc[nH]c2c1ncn2[C@@H]1O[C@H](CO)[C@@H](O)[C@H]1O [Inosine]	> 100	0.242
O=c1[nH]c(=O)n([C@H]2C[C@H](O)[C@@H](CO)O2)cc1/C=C/Br [Brivudine]	> 100	0.157
C=C[C@H]1C[N@@]2CC[C@H]1C[C@H]2[C@H](O)c1ccnc2ccc(OC)cc12 [Quinine]	> 100	0.249
O=c1cc(-c2ccc(O)cc2)oc2cc(O)c(O)c(O)c12 [Scutellarein]	> 100	0.815
Nc1nc(S)c2nc[nH]c2n1 [Thioguanine]	> 100	0.294
C[C@@]1(F)[C@H](O)[C@@H](CO)O[C@H]1n1ccc(=O)[nH]c1=O [PSI-6206]	> 100	0.116

SMILES	BMC10 any morphological effect or mortality (Danio rerio embryo) [µM]	Cell Health Index (HL-60)
Cc1cc(/C=C/C#N)cc(C)c1Nc1ccnc(Nc2ccc(C#N)cc2)n1 [Rilpivirine]	> 100	0.639
C=C[C@@H]1C2=CCOC(=O)C2=CO[C@H]1O[C@@H]1O[C@H](CO)[C@@H](O)[C@H](O)[C@H]1O [Gentiopicrin]	> 100	0.225
O=c1[nH]cnc2c1ncn2[C@H]1CC[C@@H](CO)O1 [Didanosine]	> 100	0.159
O[C@H]1[C@@]2([H])[C@](CC[C@]2([H])[C@@](O)(C)CC/C=C(C)/C)(C)[C@]3(C)CC[C@]4([H])[C@@](CC[C@H](O[C@]5([H])O[C@H](CO)[C@@H](O)[C@H](O)[C@H]5O)C4(C)C)(C)[C@@]3([H])C1 [20(R)-Ginsenoside Rh2]	> 100	0.227
CN(C)C(=O)COC(=O)Cc1ccc(OC(=O)c2ccc(NC(=N)N)cc2)cc1.CS(=O)(=O)O [Camostat]	> 100	0.162
OC[C@H]1O[C@@H](O[C@H]2C(O)O[C@H](CO)[C@@H](O)[C@@H]2O)[C@H](O)[C@@H](O)[C@@H]1O (stereo partly specified) [Sophorose]	> 100	0.187
COc1ccc(C2CNC(=O)C2)cc1OC1CCCC1 (stereo unspecified) [Rolipram]	> 100	0.152
CC(=O)SC[C@H](NC(=O)CC[C@H](N)C(=O)O)C(=O)NCC(=O)O [S-acetyl-L-Glutathione]	> 100	0.168
C[C@H](Cn1cnc2c(N)ncnc21)OCP(=O)(O)O [Tenofovir]	> 100	0.229
O=C(O)C[C@H](NC(=O)OCc1ccccc1)C(=O)COC(=O)c1c(Cl)cccc1Cl [Z-Asp-CH2-DCB]	> 100	0.212
NC(=O)c1ncn([C@@H]2O[C@H](CO)[C@@H](O)[C@H]2O)c1O [Mizoribine]	> 100	0.202
CC(=O)N[C@H]1[C@H]([C@H](O)[C@H](O)CO)OC(C(=O)O)=C[C@@H]1NC(=N)N [Zanamivir]	> 100	0.22
Oc1ccc(/C=C\c2cc(O)cc(O)c2)cc1 [Resveratrol]	> 100	0.416
CO[C@H]1[C@H](O)[C@@H](O)[C@@H](O)[C@H](O)[C@@H]1O [D-Pinitol]	> 100	0.174
COC(=O)c1cc(O)c(O)c(O)c1 [Methyl gallate]	> 100	0.351
Cc1cn([C@@H]2C[C@@H](O)[C@H](CO)O2)c(=O)[nH]c1=O [Telbivudine]	> 100	0.153
c1cc(CN2CCCNCCNCCCNCC2)ccc1CN1CCCNCCNCCCNCC1 [Plerixafor]	> 100	0.115
C=C[C@H]1C[C@@]1(NC(=O)[C@@H]1C[C@@H]2CN1C(=O)[C@H](C(C)(C)C)NC(=O)O[C@@H]1C[C@H]1CCCCCc1nc3ccc(OC)cc3nc1O2)C(=O)NS(=O)(=O)C1CC1 [Grazoprevir]	> 100	0.532
Cc1cccc(C)c1N(CC(=O)Nc1ccc(-c2ncon2)cc1)C(=O)C1CCS(=O)(=O)CC1 [Amenamevir]	> 100	0.215
COc1ccc(/C=C/C(=O)O)cc1O [Isoferulic acid]	> 100	0.171
Cn1c(Cn2ccc(C(F)(F)F)c(Oc3cc(Cl)cc(C#N)c3)c2=O)n[nH]c1=O [Doravirine]	> 100	0.198
